In US20250288589A1, “PYRIDOPYRIMIDINES AND METHODS OF THEIR USE” (Kineta, Inc., priority 2021, published 2025):

Molecular target: T1, PIKfyve (Homo sapiens, UniProt Q9Y2I7)
T1 construct: PIKFYVE-NanoLuc® Fusion Vector (Promega) containing a full-length PIKfyve; host or cells: HEK293
Assay: NanoBRET TE Intracellular Kinase Assay, K-8 (Promega) cell-based assay
Settings: HEK293 cells transfected with PIKFYVE-NanoLuc, compounds 2 hours; read-out: hPIKfyve BRET IC50
Method: NanoBRET™ TE Intracellular Kinase Assay, K-8 (Promega) Cell-Based Assay. Intracellular inhibition of PIKfyve was assayed using Promega's NanoBRET™ TE Intracellular Kinase Assay, K-8 according to manufacturer's instructions. A dilution series of test compounds was added for 2 hours to HEK293 cells transfected for a minimum of 20 hours with PIKFYVE-NanoLuc® Fusion Vector (Promega) containing a full-length PIKfyve according to manufacturer's specifications in a 96-well plate. Kinase activity was detected by addition of a NanoBRET™ tracer reagent, which was a proprietary PIKfyve inhibitor appended to a fluorescent probe (BRET, bioluminescence resonance energy transfer). Test compounds were tested at concentrations of 10, 3, 1, 0.3, 0.1, 0.03, 0.01, 0.003 μM. BRET signals were measured by a GloMax® Discover Multimode Microplate Reader (Promega) using 0.3 sec/well integration time, 450BP donor filter and 600LP acceptor filters. Active test compounds that bound PIKfyve and displaced the tracer reduced BRET signal. IC50 values were then calculated by fitting the data to the normalized BRET ratio.

T1 sequence (Q9Y2I7 whole entry, the tested form may be a part): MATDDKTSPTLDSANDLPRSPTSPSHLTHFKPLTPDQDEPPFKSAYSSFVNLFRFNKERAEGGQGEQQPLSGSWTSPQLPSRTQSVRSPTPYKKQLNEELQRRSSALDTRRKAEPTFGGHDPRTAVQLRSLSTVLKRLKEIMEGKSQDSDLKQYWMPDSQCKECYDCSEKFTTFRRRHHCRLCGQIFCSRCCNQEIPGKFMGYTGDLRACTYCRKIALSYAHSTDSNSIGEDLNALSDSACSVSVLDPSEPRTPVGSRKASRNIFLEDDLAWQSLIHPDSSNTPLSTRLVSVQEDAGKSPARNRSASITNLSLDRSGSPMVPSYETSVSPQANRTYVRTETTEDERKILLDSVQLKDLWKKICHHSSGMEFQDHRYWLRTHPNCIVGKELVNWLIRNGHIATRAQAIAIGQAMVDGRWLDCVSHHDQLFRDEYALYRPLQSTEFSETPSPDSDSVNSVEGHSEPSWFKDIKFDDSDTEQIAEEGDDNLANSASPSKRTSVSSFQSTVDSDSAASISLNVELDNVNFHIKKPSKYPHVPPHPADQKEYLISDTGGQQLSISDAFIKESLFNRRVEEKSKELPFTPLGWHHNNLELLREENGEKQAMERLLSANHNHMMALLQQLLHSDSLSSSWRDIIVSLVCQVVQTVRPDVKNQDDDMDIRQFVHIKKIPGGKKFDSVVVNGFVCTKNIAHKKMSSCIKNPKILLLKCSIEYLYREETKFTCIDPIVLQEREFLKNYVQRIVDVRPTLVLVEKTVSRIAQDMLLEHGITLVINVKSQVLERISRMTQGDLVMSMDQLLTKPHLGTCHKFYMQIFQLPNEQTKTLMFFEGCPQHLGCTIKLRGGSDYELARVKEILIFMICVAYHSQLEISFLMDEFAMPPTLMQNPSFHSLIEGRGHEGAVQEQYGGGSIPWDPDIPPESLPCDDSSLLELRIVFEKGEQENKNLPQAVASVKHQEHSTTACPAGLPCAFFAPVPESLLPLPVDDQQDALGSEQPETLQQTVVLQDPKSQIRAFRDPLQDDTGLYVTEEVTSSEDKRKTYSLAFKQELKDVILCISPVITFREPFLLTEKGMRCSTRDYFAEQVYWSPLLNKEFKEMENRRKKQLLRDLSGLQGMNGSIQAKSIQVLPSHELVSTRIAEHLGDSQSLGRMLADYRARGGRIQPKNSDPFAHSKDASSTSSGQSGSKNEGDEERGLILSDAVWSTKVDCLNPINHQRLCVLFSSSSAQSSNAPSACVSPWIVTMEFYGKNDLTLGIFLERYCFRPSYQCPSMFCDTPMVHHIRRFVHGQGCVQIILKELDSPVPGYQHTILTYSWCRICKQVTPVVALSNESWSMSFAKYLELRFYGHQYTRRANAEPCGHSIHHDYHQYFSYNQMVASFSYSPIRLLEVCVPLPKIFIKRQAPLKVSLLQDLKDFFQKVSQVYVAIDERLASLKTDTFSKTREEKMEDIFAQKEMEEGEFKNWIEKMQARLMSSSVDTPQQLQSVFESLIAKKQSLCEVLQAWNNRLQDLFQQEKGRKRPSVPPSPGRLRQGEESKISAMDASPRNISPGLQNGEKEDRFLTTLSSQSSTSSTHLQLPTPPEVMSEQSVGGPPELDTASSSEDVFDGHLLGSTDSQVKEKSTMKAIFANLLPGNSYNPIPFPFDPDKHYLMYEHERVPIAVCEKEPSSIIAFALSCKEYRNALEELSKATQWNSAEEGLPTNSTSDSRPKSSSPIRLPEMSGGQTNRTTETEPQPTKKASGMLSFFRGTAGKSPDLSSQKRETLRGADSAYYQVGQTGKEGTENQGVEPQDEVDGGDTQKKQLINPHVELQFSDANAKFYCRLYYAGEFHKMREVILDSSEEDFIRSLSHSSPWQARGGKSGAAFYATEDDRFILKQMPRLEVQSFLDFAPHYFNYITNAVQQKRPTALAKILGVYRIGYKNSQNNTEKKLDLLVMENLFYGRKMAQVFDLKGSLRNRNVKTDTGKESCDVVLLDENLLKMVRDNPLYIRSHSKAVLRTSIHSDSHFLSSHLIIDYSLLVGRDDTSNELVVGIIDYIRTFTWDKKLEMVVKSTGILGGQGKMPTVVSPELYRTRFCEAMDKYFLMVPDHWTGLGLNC

Row | Structure (SMILES) | IC50
1 | c1ccc(-c2ccn(-c3nc(N4CCOCC4)c4ncccc4n3)n2)nc1 [Compound 12, 4-(2-(3-(pyridin-2-yl)-1H-pyrazol-1-yl)pyrido[3,2-d]pyrimidin-4-yl)morpholine] | 1 to 10 µM
2 | Oc1cc(-c2ccccc2)nn1-c1nc(N2CCOCC2)c2ncccc2n1 [Compound 71, 1-(4-morpholinopyrido[3,2-d]pyrimidin-2-yl)-3-phenyl-1H-pyrazol-5-ol] | > 10 µM

Molecular target: T2, full-length human PIKFYVE (Homo sapiens, UniProt Q9Y2I7, L932S/Q1183K/Q995L/S1033A/S696N/T998S)
T2 construct: A full-length human PIKFYVE [1-2098(end) amino acids and S696N, L932S, Q995L, T998S, S1033A and Q1183K; purchased Carna Biosciences; host or cells: baculovirus expression system
T2 sequence (Q9Y2I7 whole entry S696N/L932S/Q995L/T998S/S1033A/Q1183K): as the sequence (Q9Y2I7 whole entry, the tested form may be a part) above, with S696N, L932S, Q995L, T998S, S1033A, Q1183K counted along it
Assay: PIKfyve biochemical assay (ADP-Glo Kinase assay, Carna Biosciences)
Settings: GST-PIKFYVE, 10 μM to 3 nM in duplicate, read-out: hPIKfyve IC50
From the text: (§1) PIKfyve Biochemical Assay. The biochemical PIKFyve inhibition assays were run by Carna Biosciences according to proprietary methodology based on the Promega ADP-Glo™ Kinase assay. A full-length human PIKFYVE [1-2098(end) amino acids and S696N, L932S, Q995L, T998S, S1033A and Q1183K of the protein having the sequence set forth in NCBI Reference Sequence No. NP_055855.2] was expressed as N-terminal GST-fusion protein (265 kDa) using baculovirus expression system. GST-PIKFYVE was purified by using glutathione sepharose chromatography and used in an ADP-Glo™ Kinase assay (Promega). Reactions were set up by adding the test compound solution, substrate solution, ATP solution and kinase solution, each at 4× final concentrations. Reactions were prepared with assay buffer (50 mM MOPS, 1 mM DTT, pH7.2), mixed, and incubated in black 384 well polystyrene plates for 1 hour at room temperature. ADP-Glo™ reagent was then added for 40 minutes, followed by kinase detection reagent for an additional 40 minutes. The kinase activity was evaluated by detecting relative light units on a luminescence plate reader. Samples were run in duplicate from 10 μM to 3 nM. […] IC50 values were calculated from concentration vs % inhibition curves by fitting to a four-parameter logistic curve.
as §1, with “The” for “PIKfyve Biochemical Assay. The”, “accession number” for “the protein having the sequence set forth in NCBI Reference Sequence No.”, “uM” for “μM”

Row | Structure (SMILES) | IC50
3 | c1ccc(-c2ccn(-c3nc(N4CCOCC4)c4ncccc4n3)n2)nc1 [Compound 12, 4-(2-(3-(pyridin-2-yl)-1H-pyrazol-1-yl)pyrido[3,2-d]pyrimidin-4-yl)morpholine] | 0.1 to 1 µM
4 | COc1cccc(-c2nccc(-c3nc(N4CCOCC4)c4ncccc4n3)n2)c1 [Compound 100, 4-(2-(2-(3-methoxyphenyl)pyrimidin-4-yl)pyrido[3,2-d]pyrimidin-4-yl)morpholine] | 0.1 to 1 µM
5 | Oc1cccc(-c2nccc(-c3nc(N4CCOCC4)c4ncccc4n3)n2)c1 [Compound 101, 3-(4-(4-morpholinopyrido[3,2-d]pyrimidin-2-yl)pyrimidin-2-yl)phenol] | 0.1 to 1 µM
6 | COc1cnc(-c2cccc(C)c2)nc1-c1nc(N2CCOCC2)c2ncccc2n1 [Compound 102, 4-(2-(5-methoxy-2-m-tolylpyrimidin-4-yl)pyrido[3,2-d]pyrimidin-4-yl)morpholine] | 0.1 to 1 µM

Next, values leading:

Row | IC50 | Structure (SMILES)
7 | 0.01 to 0.1 µM | Cc1cccc(-c2ncc(O)c(-c3nc(N4CCOCC4)c4ncccc4n3)n2)c1 [Compound 103, 4-(4-morpholinopyrido[3,2-d]pyrimidin-2-yl)-2-m-tolylpyrimidin-5-ol]
8 | < 0.01 µM | c1ccc(-c2nccc(-c3nc(N4CCOCC4)c4ncc(-c5ccncc5)cc4n3)n2)cc1 [Compound 104, 4-(2-(2-phenylpyrimidin-4-yl)-7-(pyridin-4-yl)pyrido[3,2-d]pyrimidin-4-yl)morpholine]
9 | 0.01 to 0.1 µM | c1ccc(-c2nccc(-c3nc(N4CCOCC4)c4ncc(-c5cc[nH]n5)cc4n3)n2)cc1 [Compound 105, 4-(2-(2-phenylpyrimidin-4-yl)-7-(1H-pyrazol-3-yl)pyrido[3,2-d]pyrimidin-4-yl)morpholine]
10 | 0.1 to 1 µM | CC1COCCN1c1nc(-c2ccnc(-c3ccccc3)n2)nc2cccnc12 (centres unmarked) [Compound 106, 3-methyl-4-(2-(2-phenylpyrimidin-4-yl)pyrido[3,2-d]pyrimidin-4-yl)morpholine]
11 | 1 to 10 µM | COc1ccc(-c2ccccc2)nc1-c1nc(N2CCOCC2)c2ncccc2n1 [Compound 107, 4-(2-(3-methoxy-6-phenylpyridin-2-yl)pyrido[3,2-d]pyrimidin-4-yl)morpholine]
12 | 0.01 to 0.1 µM | Oc1ccc(-c2ccccc2)nc1-c1nc(N2CCOCC2)c2ncccc2n1 [Compound 108, 2-(4-morpholinopyrido[3,2-d]pyrimidin-2-yl)-6-phenylpyridin-3-ol]
13 | 0.1 to 1 µM | c1ccc2c(c1)cnn2-c1nc(N2CCOCC2)c2ncccc2n1 [Compound 109, 4-(2-indazol-1-ylpyrido[3,2-d]pyrimidin-4-yl)morpholine]
14 | 0.1 to 1 µM | Oc1cccc(/C=N/Nc2nc(N3CCOCC3)c3ncccc3n2)c1 [Compound 114, (E)-3-((2-(4-morpholinopyrido[3,2-d]pyrimidin-2-yl)hydrazono)methyl)phenol]
15 | 0.01 to 0.1 µM | Cc1cccc(/C=N/Oc2nc(N3CCOCC3)c3ncccc3n2)c1 [Compound 116, (E)-3-methylbenzaldehyde O-(4-morpholinopyrido[3,2-d]pyrimidin-2-yl) oxime]
16 | > 10 µM | Clc1nc(N2CCOCC2)c2ncc(Cc3cccnc3)cc2n1 [Compound 128, 4-(2-chloro-7-(pyridin-3-ylmethyl)pyrido[3,2-d]pyrimidin-4-yl)morpholine]
17 | 0.1 to 1 µM | Fc1cccc(Nc2nc(N3CCOCC3)c3ncc(Cc4cccnc4)cc3n2)c1 [Compound 129, N-(3-fluorophenyl)-4-morpholino-7-(pyridin-3-ylmethyl)pyrido[3,2-d]pyrimidin-2-amine]

System: PIKFYVE TDP-43 yeast strain
Assay: Propidium iodide viability assay in PIKFYVE TDP-43 yeast strain
Type: cell-based
Settings: Saccharomyces cerevisiae; reduction in PI-positive cells, 24 hours, 15 μM to 0.11 μM; plotted in FIG. 7
From the text: Generation of TDP-43 yeast model expressing human PIKfyve. Human PIKFYVE (“entry clone”) was cloned into pAG416GPDccdB (“destination vector”) according to standard Gateway cloning protocols (Invitrogen, Life Technologies). The resulting pAG416GPD-PIKFYVE plasmids were amplified in E. coli and plasmid identity confirmed by restriction digest and Sanger sequencing. Lithium acetate/polyethylene glycol-based transformation was used to introduce the above PIKFYVE plasmid into a BY4741 yeast strain auxotrophic for the ura3 gene and deleted for two transcription factors that regulate the xenobiotic efflux pumps, a major efflux pump, and FAB1, the yeast ortholog of PIKFYVE (MATa, snq2::KILeu2; pdr3::Klura3;pdr1::NATMX; fab1::G418^R, his3;leu2;ura3;met15;LYS2+) (FIG. 2).
Transformed yeast were plated on solid agar plates with complete synthetic media lacking uracil (CSM-ura) and containing 2% glucose. Individual colonies harboring the control or PIKFYVE TDP-43 plasmids were recovered. A plasmid containing wild-type TDP-43 under the transcriptional control of the GAL1 promoter and containing the hygromycin-resistance gene as a selectable marker was transformed into the fab1::G418^R pAG416GPD-PIKFYVE yeast strain (FIG. 1). Transformed yeast were plated on CSM-ura containing 2% glucose and […] after overnight recovery in media lacking antibiotic. Multiple independent isolates were further evaluated for cytotoxicity and TDP-43 expression levels.
Viability Assay. A control yeast strain with the wild-type yeast FAB1 gene and TDP-43 (“FAB1 TDP-43”, carries empty pAG416 plasmid), and the “PIKFYVE TDP-43” yeast strain, were assessed for toxicity using a propidium iodide viability assay. Both yeast strains were transferred from solid CSM-ura/2% glucose agar plates into 3 mL of liquid CSM-ura/2% glucose media for 6-8 hours at 30° C. with aeration. Yeast cultures were then diluted to an optical density at 600 nm wavelength (OD600) of 0.005 in 3 mL of CSM-ura/2% raffinose and grown overnight at 30° C. with aeration to an OD600 of 0.3-0.8. Log-phase overnight cultures were diluted to OD600 of 0.005 in CSM-ura containing either 2% raffinose or galactose and 150 μL dispensed into each well of a flat bottom 96-well plates. Compounds formulated in 100% dimethyl sulfoxide (DMSO) were serially diluted in DMSO and 1.5 μL diluted compound transferred to the 96-well plates using a multichannel pipet. Wells containing DMSO alone were also evaluated as controls for compound effects. Tested concentrations ranged from 15 μM to 0.11 μM. Cultures were immediately mixed to ensure compound distribution and covered plates incubated at 30° C. for 24 hours in a stationary, humified incubator.
Upon the completion of incubation, cultures were assayed for viability using propidium iodide (PI) to stain for dead/dying cells. A working solution of PI was made where, for each plate, 1 μL of 10 mM PI was added to 10 mL of CSM-ura (raffinose or galactose). The final PI solution (50 μL/well) was dispensed into each well of a new round bottom 96-well plate. The overnight 96-well assay plate was then mixed with a multichannel pipet and 50 μL transferred to the PI-containing plate. This plate was then incubated for 30 minutes at 30° C. in the dark. A benchtop flow cytometer (Miltenyi MACSquant) was then used to assess red fluorescence (B2 channel), forward scatter, and side scatter (with following settings: gentle mix, high flow rate, fast measurement, 10,000 events). Intensity histograms were then gated for “PI-positive” or “PI-negative” using the raffinose and galactose cultures treated with DMSO as controls. The DMSO controls for raffinose or galactose-containing cultures were used to determine the window of increased cell death and this difference set to 100. All compounds were similarly gated and then compared to this maximal window to establish the percent reduction in PI-positive cells.

Row | Structure (SMILES) | IC50
18 | Cc1cccc(/C=N/Nc2cc(N3CCOCC3)nc(OCCc3ccc(CN)cc3)n2)c1 | 1.12 µM
19 | c1ccc(-c2cccc(-c3cc(N4CCOCC4)n4nc(-c5ccncc5)cc4n3)n2)cc1 | 0.23 µM
20 | Cc1cccc(/C=N/Nc2nc(N3CCOCC3)c3nc(-c4ccncc4)n(C)c3n2)c1 | 4.72 µM
21 | Oc1cc(-c2ccccc2)nn1-c1cc(N2CCOCC2)n2nc(-c3ccncc3)nc2n1 | 0.693 µM
22 | Oc1cc(C2CCOCC2)nn1-c1cc(N2CCOCC2)n2nc(-c3ccncc3)cc2n1 | 9.11 µM
23 | Cc1cccc(/C=N/Nc2nc(N3CCOCC3)c3ncccc3n2)c1 | 8.21 µM
24 | c1ccc(-c2ccnc(-c3cc(N4CCOCC4)nc(OCc4ccncc4)n3)n2)cc1 | 1.45 µM
25 | c1ccc(N2CCc3c(OCc4cccnc4)nc(N4CCOCC4)nc32)cc1 | 2.69 µM
26 | Fc1cccc(-c2ccnn2-c2nc(N3CCOCC3)c3ncccc3n2)c1 | 5.75 µM
